Consider 16 compounds from ChEMBL document CHEMBL5241058, “Pyrazole-based analogs as potential antibacterial agents against methicillin-resistance staphylococcus aureus (MRSA) and its SAR elucidation” (Eur J Med Chem, 2021).

Broadly, the MIC is the lowest concentration found to suppress growth. A word on the MBC: it is the smallest concentration meeting the test's criterion for killing. As a reminder, the inhibition is the percentage by which the read-out fell short of the control. High values mean a response far below the control, low ones a response near the control.

Values after ≈ are worked out from the molar mass of the structure shown. Values joined by “and” are separate entries in the source; they are usually repeats but may differ in a detail not shown here. Equal entries are not always repeated. Some results are limits rather than exact numbers.

For assay [1], the system named is Staphylococcus aureus. Put plainly: Antimicrobial activity against vancomycin intermediate-resistant Staphylococcus aureus assessed as bacterial growth inhibition incubated for 24 hrs by microdilution method. The assay is classed as functional. In general terms: In broth dilution the organism is exposed to a series of concentrations in liquid medium.
Assay [2] relates to Staphylococcus aureus. Put plainly: Antimicrobial activity against Methicillin-resistant Staphylococcus aureus MW2 assessed as bacterial growth inhibition incubated for 18 hrs by microdilution method. The class given is functional.
Assay [3] relates to Staphylococcus aureus. Briefly: Antimicrobial activity against Methicillin-resistant Staphylococcus aureus CCARM 3506 assessed as bacterial growth inhibition incubated for 24 hrs by ELISA assay. The class given is functional. (In general: ELISA stands for enzyme-linked immunosorbent assay.)
The test system of assay [4] is Staphylococcus aureus. Put plainly: Antimicrobial activity against Methicillin sensitive Staphylococcus aureus assessed as bacterial growth inhibition incubated for 18 hrs. The assay is classed as functional.
Assay [5] has as its system Staphylococcus aureus. Briefly: Antimicrobial activity against Methicillin-resistant Staphylococcus aureus ATCC 33592 assessed as bacterial growth inhibition incubated for 20 to 24 hrs by microdilution method. The assay is classed as functional. Conditions: time 20-24 hrs.
Assay [6] has as its system Staphylococcus aureus. Briefly: Antimicrobial activity against Methicillin-resistant Staphylococcus aureus ATCC 33599 assessed as bacterial growth inhibition. The class given is functional.
Assay [7] deals with Staphylococcus aureus. Put plainly: Antibiofilm activity against Methicillin-resistant Staphylococcus aureus USA 300 relative to control. The class given is functional.
The test system of assay [8] is Staphylococcus aureus. Briefly: Antimicrobial activity against Staphylococcus aureus 209 assessed as bacterial growth inhibition. The assay is classed as functional.
Assay [9] relates to Staphylococcus aureus. Put plainly: Antimicrobial activity against Methicillin-resistant Staphylococcus aureus assessed as bacterial growth inhibition. The class given is functional.
Assay [10] deals with Escherichia coli. Briefly: Antimicrobial activity against Escherichia coli ATCC 8739 assessed as bacterial growth inhibition incubated for 18 hrs by microdilution method. The assay is classed as functional.
The subject of assay [11] is Salmonella enterica subsp. enterica. Put plainly: Antimicrobial activity against Salmonella typhimurium […] assessed as bacterial growth inhibition incubated for 18 hrs by microdilution method. The assay is classed as functional.
The subject of assay [12] is Klebsiella pneumoniae. Put plainly: Antimicrobial activity against Klebsiella pneumoniae ATCC 314588 assessed as bacterial growth inhibition incubated for 18 hrs by microdilution method. The assay is classed as functional.
In assay [13] the test system is Pseudomonas aeruginosa. Put plainly: Antimicrobial activity against Pseudomonas aeruginosa ATCC 27853 assessed as bacterial growth inhibition incubated for 18 hrs by microdilution method. The assay is classed as functional.
Assay [14] relates to Staphylococcus aureus. Put plainly: Antimicrobial activity against Methicillin-resistant Staphylococcus aureus ATCC BAA 1683 assessed as bacterial growth inhibition incubated for 18 hrs by microdilution method. The class given is functional.
Assay [15] relates to Staphylococcus aureus. Put plainly: Antimicrobial activity against Methicillin-resistant Staphylococcus aureus ATCC 3167 assessed as bacterial growth inhibition. The class given is functional.
The subject of assay [16] is Staphylococcus aureus. Briefly: Antimicrobial activity against Methicillin-sensitive Staphylococcus aureus ATCC 25923 assessed as bacterial growth inhibition. The assay is classed as functional.
In assay [17] the test system is Staphylococcus aureus. Briefly: Antimicrobial activity against Methicillin-resistant Staphylococcus aureus BAA-2312 assessed as bacterial growth inhibition. The assay is classed as functional.
For assay [18], the system named is Staphylococcus aureus. Briefly: Antimicrobial activity against Methicillin-resistant Staphylococcus aureus ATCC 700699 assessed as bacterial growth inhibition. The class given is functional.
Assay [19] relates to Staphylococcus aureus. Put plainly: Antimicrobial activity against Methicillin-resistant Staphylococcus aureus ATCC 33591 assessed as bacterial growth inhibition. The assay is classed as functional.
Assay [20] relates to Staphylococcus aureus. Put plainly: Antimicrobial activity against Methicillin-resistant Staphylococcus aureus ATCC 33592 assessed as bacterial growth inhibition. The assay is classed as functional.
In assay [21] the test system is Staphylococcus aureus. Briefly: Antimicrobial activity against Methicillin-resistant Staphylococcus aureus BFSA25 assessed as bacterial growth inhibition by microdilution method. The assay is classed as functional. The settings on record: BFA25.
Assay [22] relates to Staphylococcus aureus. Briefly: Antimicrobial activity against Methicillin-resistant Staphylococcus aureus BFSA30 assessed as bacterial growth inhibition by microdilution method. The assay is classed as functional. Conditions: BFA30.
Assay [23] has as its system Staphylococcus aureus. Put plainly: Antimicrobial activity against Methicillin-resistant Staphylococcus aureus BFSA31 assessed as bacterial growth inhibition by microdilution method. The assay is classed as functional. Conditions: BFA31.
In assay [24] the test system is Staphylococcus aureus. Briefly: Antimicrobial activity against Methicillin-resistant Staphylococcus aureus BFSA32 assessed as bacterial growth inhibition by microdilution method. The assay is classed as functional. The settings on record: BFA32.
The test system of assay [25] is Staphylococcus aureus. Briefly: Antimicrobial activity against Methicillin-resistant Staphylococcus aureus BFSA33 assessed as bacterial growth inhibition by microdilution method. The class given is functional. Conditions: BFA33.
The test system of assay [26] is Staphylococcus aureus. Briefly: Antimicrobial activity against Methicillin-resistant Staphylococcus aureus BFSA48 assessed as bacterial growth inhibition by microdilution method. Conditions: BFA48. The assay is classed as functional.
Assay [27] deals with Staphylococcus aureus. Put plainly: Antimicrobial activity against Methicillin-sensitive Staphylococcus aureus ATCC 33591 assessed as bacterial growth inhibition by microbroth serial dilution method. The assay is classed as functional.
Assay [28] concerns Staphylococcus aureus. Briefly: Antimicrobial activity against Methicillin-sensitive Staphylococcus aureus ATCC 43300 assessed as bacterial growth inhibition by microbroth serial dilution method. The assay is classed as functional.
For assay [29], the system named is Staphylococcus aureus. Put plainly: Antimicrobial activity against Methicillin-sensitive Staphylococcus aureus ATCC 33591 assessed as bacterial growth inhibition incubated for 24 hrs. The assay is classed as functional.
The subject of assay [30] is Staphylococcus aureus. Put plainly: Antimicrobial activity against Methicillin-sensitive Staphylococcus aureus ATCC 43300 assessed as bacterial growth inhibition incubated for 24 hrs. The assay is classed as functional. The settings on record: ATCC43300.
Assay [31] has as its target T1, Dihydrofolate reductase (Homo sapiens) (UniProt P00374).
T1 sequence (whole entry): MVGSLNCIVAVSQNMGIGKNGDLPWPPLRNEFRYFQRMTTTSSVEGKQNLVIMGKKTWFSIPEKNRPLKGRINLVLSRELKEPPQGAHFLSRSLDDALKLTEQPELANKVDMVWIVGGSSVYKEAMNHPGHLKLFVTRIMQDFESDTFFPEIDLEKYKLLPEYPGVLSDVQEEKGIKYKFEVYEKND
Put plainly: Inhibition of human DHFR using TMB as substrate incubated for 1.5 hrs by ELISA assay relative to control. Conditions: concentration not given here.

Assay [32] concerns Staphylococcus aureus. Briefly: Antimicrobial activity against Methicillin-resistant Staphylococcus aureus assessed as bacterial growth inhibition incubated for 24 hrs by microdilution method. The assay is classed as functional.
In assay [33] the test system is Staphylococcus aureus. Briefly: Antimicrobial activity against Methicillin-resistant Staphylococcus aureus assessed as bacterial growth inhibition incubated for 24 hrs by agar disc diffusion method. The class given is functional.

Regarding `CCCc1c(-c2ccc(O)cc2)nn(-c2ccc(O)cc2)c1-c1ccc(O)cc1` [PROPYLPYRAZOLETRIOL], the MIC in assay [1] and in [2] was 8 µg/mL (≈ 20.7 µM) throughout.

With `COc1c(N2C[C@@H]3CCCN[C@@H]3C2)c(F)cc2c(=O)c(C(=O)O)cn(C3CC3)c12` [MOXIFLOXACIN], the minimal inhibitory concentration (MIC) in assay [3] worked out at 1 µg/mL (≈ 2.49 µM); in assay [4], 0.06 µg/mL (≈ 0.149 µM).

Take `O=C(O)c1ccc(-n2cc(/C=N/Nc3cccc(Cl)c3F)c(-c3cccc(F)c3)n2)cc1`: in [5], the MIC is 0.78 µg/mL (≈ 1.72 µM).

For the compound `CN[C@H](CC(C)C)C(=O)N[C@H]1C(=O)N[C@@H](CC(N)=O)C(=O)N[C@H]2C(=O)N[C@H]3C(=O)N[C@H](C(=O)N[C@H](C(=O)O)c4cc(O)cc(O)c4-c4cc3ccc4O)[C@H](O)c3ccc(c(Cl)c3)Oc3cc2cc(c3O[C@@H]2O[C@H](CO)[C@@H](O)[C@H](O)[C@H]2O[C@H]2C[C@](C)(N)[C@H](O)[C@H](C)O2)Oc2ccc(cc2Cl)[C@H]1O` [VANCOMYCIN], in [6], the MBC worked out at 6.25 µg/mL (≈ 4.31 µM) and the minimum inhibitory concentration (MIC) worked out at 3.12 µg/mL (≈ 2.16 µM). Besides, the MIC in assay [1] was less than 0.125 µg/mL. In assay [7], this compound showed an Activity of 18%.

With `CC(=O)c1c(N2Cc3nn(C)c(N)c3C2)c(F)cc2c(=O)c(C(=O)O)cn(C3CC3)c12`, in [4], the minimal inhibitory concentration (MIC) worked out at 0.125 µg/mL (≈ 0.294 µM).

`COc1nnc2nn(C)cnc1-2`: the MIC in assay [8] worked out at 50 µg/mL (≈ 303 µM).

Consider `O=C(O)c1cn(C2CC2)c2cc(N3CCNCC3)c(F)cc2c1=O` [CIPROFLOXACIN], for which the MBC in assay [9] turned out to be 625 µg/mL (≈ 1890 µM). Moreover, the minimal inhibitory concentration (MIC) in [10] is greater than 1.8 µg/mL; in [11], greater than 1.8 µg/mL; in assay [12], greater than 1.8 µg/mL; in assay [13], greater than 1.8 µg/mL; in [14], 1.84 µg/mL (≈ 5.55 µM).

Take `COc1cc(/C=C/c2cc(/C=C/c3ccc(OCC(=O)N[C@H](C)c4ccccc4)c(OC)c3)[nH]n2)ccc1OCC(=O)N[C@H](C)c1ccccc1`: the minimum inhibitory concentration (MIC) in assay [15] was determined as 10 µM (≈ 6.87 µg/mL).

Consider `COc1[nH]nc2nncnc12`, for which the MIC in assay [8] came out at 200 µg/mL (≈ 1320 µM).

`COc1cc(/C=C/c2cc(/C=C/c3ccc(OCC(=O)NC45CC6CC(CC4C6)C5)c(OC)c3)[nH]n2)ccc1OCC(=O)NC12CC3CC(CC1C3)C2`: the minimal inhibitory concentration (MIC) in assay [15] was 10 µM (≈ 7.19 µg/mL).

As to `O=C(O)c1ccc(-n2cc(/C=N\N(c3ccccc3)c3ccccc3)c(-c3cc4cc(F)ccc4oc3=O)n2)cc1`, the minimal inhibitory concentration (MIC) in [16], in assay [17], in assay [18], in assay [19] and in assay [20] was 3.12 µg/mL (≈ 5.74 µM) in each case.

As to `CCCSC(=S)c1c(C)nn(-c2ccccc2)c1O`, the MIC in [21], in assay [22], in assay [23], in assay [24], in assay [25] and in [26] was 4 µg/mL throughout.

Consider `CC(=O)c1nn(-c2ccc([N+](=O)[O-])cc2)cc1C(=O)c1cc2cc(CN3CCN(Cc4ccc5oc(C(=O)c6cn(-c7ccc([N+](=O)[O-])cc7)nc6C(C)=O)cc5c4)CC3)ccc2o1`, for which the minimal inhibitory concentration (MIC) in assay [27] was 18.1 µM and 9 µM; in assay [28] it was 9 µM. In addition, the MBC in [28] turned out to be 36.2 µM; in assay [29], 36.2 µM (≈ 31.2 µg/mL); in assay [30], 18.1 µM (≈ 15.6 µg/mL).

Take `Cc1nn(-c2ccc(Cl)cc2Cl)c(Oc2ccc(Cl)cc2Cl)c1C1N=C(N)NC(NCCc2ccccc2)=N1` (stereo not given): the MIC in assay [3] turned out to be 0.5 µg/mL (≈ 0.829 µM). Also, in assay [31], the inhibition is 43%.

With `Fc1ccc(-c2nn(-c3ccccc3)cc2-c2nc3ccccn3c2Cc2ccccc2)cc1`, the MIC in [10] was less than 1 µg/mL; in [11], less than 1 µg/mL; in [12], less than 1 µg/mL; in assay [13], less than 1 µg/mL; in assay [14], 2.5 µg/mL (≈ 5.62 µM).

As for `CCOC(=O)c1nn(-c2ccccc2)cc1C(=O)c1ccc(S(=O)(=O)c2ccccc2)cc1`, the minimal inhibitory concentration (MIC) in [32] turned out to be 25 µg/mL (≈ 54.3 µM). In assay [33], the “inhibition zone (IZ)” value worked out at 14 mm.
